According to patent publication US11718614B2, “Compounds and methods for treatment of hedgehog pathway associated conditions” (Suzhou Mednes Pharma Tech Co., Ltd., priority 2018, dated 2023):

Test system: tumor cells from medulloblastoma developed from mice with deficiency in Patched1 gene
Assay: MB assay: survival of medulloblastoma tumor cells by MTT after 48 hours
Format: cell-based
Details: Mus musculus, tumor cells treated 48 hours, cell survival by MTT
Experimental: To test the effect of the novel compounds on the proliferation of tumor cell, we isolated tumor cells from medulloblastoma developed from mice with deficiency in Patched1 gene. Tumor cells were plated in vitro as previously described, and treated with various concentration of compounds for 48 hours. Tumor cells cultured were then harvested to measure cell survival based on MTT assay. The IC50 value for each compound was calculated using Prism the statistical software.
Table 1 below summarizes the IC50 data obtained using MB assay for exemplary compounds of the invention. IC50 values are shown as A, B, C, or D. A represents IC50 value between 1.0 μM and 5.0 μM; B is between 5.0 μM and 10 μM; C is between 10 μM to 20 μM; and D indicates greater than 20 μM.

Row | Compound | IC50
1 | CC(C)c1ccc2c(c1)c(C(=O)C1CCC1)c(CC(C)(C)C(=O)O)n2Cc1ccc(Cl)cc1 [Compound 1, 3-(1-(4-chlorobenzyl)-3-(cyclobutanecarbonyl)-5-isopropyl-1H-indol-2-yl)-2,2-dimethylpropanoic acid] | 1 to 5 µM
2 | CCOC(=O)C(C)(C)Cc1c(C(=O)C2CCC2)c2cc(C(C)C)ccc2n1Cc1ccc(Cl)cc1 [Compound 2, ethyl 3-(1-(4-chlorobenzyl)-3-(cyclobutanecarbonyl)-5-isopropyl-1H-indol-2-yl)-2,2-dimethylpropanoate] | > 20 µM
3 | CC(C)c1ccc2c(c1)c(SCC(C)(C)C)c(CC(C)(C)C(=O)O)n2Cc1ccc(Cl)cc1 [Compound 3] | 1 to 5 µM
4 | CCOC(=O)C(C)(C)Cc1c(SCC(C)(C)C)c2cc(C(C)C)ccc2n1Cc1ccc(Cl)cc1 [Compound 4, ethyl 3-(1-(4-chlorobenzyl)-5-isopropyl-3-(neopentylthio)-1H-indol-2-yl)-2,2-dimethylpropanoate] | > 20 µM
5 | CC(C)c1ccc2c(c1)c([S+]([O-])CC(C)(C)C)c(CC(C)(C)C(=O)O)n2Cc1ccc(Cl)cc1 (stereo not drawn) [Compound 5] | > 20 µM
6 | CCOC(=O)C(C)(C)Cc1c([S+]([O-])CC(C)(C)C)c2cc(C(C)C)ccc2n1Cc1ccc(Cl)cc1 (stereo not drawn) [Compound 6] | 10 to 20 µM
7 | CC(C)c1ccc2c(c1)c(S(=O)(=O)CC(C)(C)C)c(CC(C)(C)C(=O)O)n2Cc1ccc(Cl)cc1 [Compound 7] | 10 to 20 µM
8 | CCOC(=O)C(C)(C)Cc1c(S(=O)(=O)CC(C)(C)C)c2cc(C(C)C)ccc2n1Cc1ccc(Cl)cc1 [Compound 8] | 10 to 20 µM
9 | CC(C)C(=O)c1c(CC(C)(C)C(=O)O)n(Cc2ccc(Cl)cc2)c2ccc(C(C)C)cc12 [Compound 9, 3-(1-(4-chlorobenzyl)-3-isobutyryl-5-isopropyl-1H-indol-2-yl)-2,2-dimethylpropanoic Acid] | 10 to 20 µM
10 | CCOC(=O)C(C)(C)Cc1c(C(=O)C(C)C)c2cc(C(C)C)ccc2n1Cc1ccc(Cl)cc1 [Compound 10, Ethyl 3-(1-(4-chlorobenzyl)-3-isobutyryl-5-isopropyl-1H-indol-2-yl)-2,2-dimethylpropanoate] | > 20 µM
11 | CC(C)c1ccc2c(c1)c(SC(C)(C)C)c(CCC(=O)O)n2Cc1ccc(Cl)cc1 [Compound 11, 3-(3-(tert-butylthio)-1-(4-chlorobenzyl)-5-isopropyl-1H-indol-2-yl) Propanoic Acid] | 5 to 10 µM
12 | CCOC(=O)CCc1c(SC(C)(C)C)c2cc(C(C)C)ccc2n1Cc1ccc(Cl)cc1 [Compound 12] | > 20 µM
13 | CC(C)c1ccc2c(c1)c(SC(C)(C)C)c(CC(=O)O)n2Cc1ccc(Cl)cc1 [Compound 13, 2-(3-(tert-butylthio)-1-(4-chlorobenzyl)-5-isopropyl-1H-indol-2-yl) Acetic Acid] | 10 to 20 µM
14 | COC(=O)Cc1c(SC(C)(C)C)c2cc(C(C)C)ccc2n1Cc1ccc(Cl)cc1 [Compound 14, methyl 2-(3-(tert-butylthio)-1-(4-chlorobenzyl)-5-isopropyl-1H-indol-2-yl)acetate] | > 20 µM
15 | CC(C)c1ccc2c(c1)c(SC(C)(C)C)c(CC(C)(C)C)n2Cc1ccc(Cl)cc1 [Compound 15] | > 20 µM
16 | CC(C)c1cnc2c(c1)c(C(=O)C1CCC1)c(CC(C)(C)C(=O)O)n2Cc1ccc(Cl)cc1 [Compound 16, 3-(1-(4-chlorobenzyl)-3-(cyclobutanecarbonyl)-5-isopropyl-1H-pyrrolo-[2,3-b]pyridin-2-yl)-2,2-dimethylpropanoic acid] | 10 to 20 µM
17 | COc1cnc2c(c1)c(SC(C)(C)C)c(CC(C)(C)C(=O)O)n2Cc1ccc(Cl)cc1 [Compound 17] | > 20 µM
18 | CCOC(=O)C(C)(C)Cc1c(SC(C)(C)C)c2cc(OC)cnc2n1Cc1ccc(Cl)cc1 [Compound 18] | > 20 µM
19 | CC(C)(C)CC(=O)c1c(CC(C)(C)C(=O)O)n(Cc2ccc(Cl)cc2)c2ccc(O)cc12 [Compound 19] | > 20 µM

Row | Compound | IC50
20 | CC(C)(C)CCc1c(CC(C)(C)CO)n(Cc2ccc(Cl)cc2)c2ccc(O)cc12 [Compound 20] | 1 to 5 µM
21 | COC(=O)C(C)(C)Cc1c(C(=O)CC(C)(C)C)c2cc(OC)ccc2n1Cc1ccc(Cl)cc1 [Compound 21] | > 20 µM
22 | COc1ccc2c(c1)c(C(=O)CC(C)(C)C)c(CC(C)(C)C(=O)O)n2Cc1ccc(Cl)cc1 [Compound 22] | > 20 µM
23 | COc1ccc2c(c1)c(C(=O)CC(C)(C)C)c(CC(C)(C)CO)n2Cc1ccc(Cl)cc1 [Compound 23] | 5 to 10 µM
24 | COC(=O)C(C)(C)Cc1c(C(=O)CC(C)(C)C)c2cc(O)ccc2n1Cc1ccc(Cl)cc1 [Compound 24] | 1 to 5 µM
25 | CC(C)(C)CC(=O)c1c(CC(C)(C)CO)n(Cc2ccc(Cl)cc2)c2ccc(O)cc12 [Compound 25] | > 20 µM
26 | COc1ccc2c(c1)c(CCC(C)(C)C)c(CC(C)(C)CO)n2Cc1ccc(Cl)cc1 [Compound 26] | 1 to 5 µM
27 | CC(C)c1ccc2c(C(=O)c3ccc(Cl)cc3)c(CC(C)(C)C(=O)O)n(CC3CCC3)c2c1 [Compound 27] | 5 to 10 µM
28 | COC(=O)C(C)(C)Cc1c(C(=O)c2ccc(Cl)cc2)c2ccc(C(C)C)cc2n1CC1CCC1 [Compound 28, methyl 3-(3-(4-chlorobenzoyl)-1-(cyclobutylmethyl)-6-isopropyl-1H-indol-2-yl)-2,2-dimethylpropanoate] | > 20 µM
29 | CC(C)(Cc1c(C(=O)c2ccc(Cl)cc2)c2ccc(O)cc2n1CC1CCC1)C(=O)O [Compound 29, 3-(3-(4-chlorobenzoyl)-1-(cyclobutylmethyl)-6-hydroxy-1H-indol-2-yl)-2,2-dimethylpropanoic Acid] | > 20 µM
30 | CCOC(=O)C(C)(C)Cc1c(C(=O)c2ccc(Cl)cc2)c2ccc(O)cc2n1CC1CCC1 [Compound 30, Ethyl 3-(3-(4-chlorobenzoyl)-1-(cyclobutylmethyl)-6-hydroxy-1H-indol-2-yl)-2,2-dimethylpropanoate] | > 20 µM
31 | COc1ccc2c(c1)c(SC(C)(C)C)c(CC(C)(C)c1nc(C)co1)n2Cc1ccc(Cl)cc1 [Compound 31] | > 20 µM
32 | Cc1coc(C(C)(C)Cc2c(SC(C)(C)C)c3cc(O)ccc3n2Cc2ccc(Cl)cc2)n1 [Compound 32] | 1 to 5 µM
33 | CCc1noc(C(C)(C)Cc2c(SC(C)(C)C)c3cc(OC)ccc3n2Cc2ccc(Cl)cc2)n1 [Compound 33] | > 20 µM
34 | CCc1noc(C(C)(C)Cc2c(SC(C)(C)C)c3cc(O)ccc3n2Cc2ccc(Cl)cc2)n1 [Compound 34] | 5 to 10 µM
35 | COc1ccc2c(c1)c(SC(C)(C)C)c(CC(C)(C)c1nnnn1C)n2Cc1ccc(Cl)cc1 [Compound 35, 3-(tert-butylthio)-1-(4-chlorobenzyl)-5-methoxy-2-(2-methyl-2-(1-methyl-1H-tetrazol-5-yl)propyl)-1H-indole] | 5 to 10 µM
36 | COc1ccc2c(c1)c(SC(C)(C)C)c(CC(C)(C)c1nnn(C)n1)n2Cc1ccc(Cl)cc1 [Compound 36, 3-(tert-butylthio)-1-(4-chlorobenzyl)-5-methoxy-2-(2-methyl-2-(2-methyl-2H-tetrazol-5-yl)propyl)-1H-indole] | 5 to 10 µM
37 | Cn1nnnc1C(C)(C)Cc1c(SC(C)(C)C)c2cc(O)ccc2n1Cc1ccc(Cl)cc1 [Compound 37, 3-(tert-butylthio)-1-(4-chlorobenzyl)-2-(2-methyl-2-(1-methyl-1H-tetrazol-5-yl)propyl)-1H-indol-5-ol] | 10 to 20 µM
38 | COc1ccc2c(c1)nc(C(C)c1ccc(Br)cc1)n2Cc1ccccc1Cl (stereo not drawn) [Compound 39] | 5 to 10 µM

Row | Compound | IC50
39 | COc1ccc2c(c1)nc(C(C)c1ccc(C#N)cc1)n2Cc1ccccc1Cl (stereo not drawn) [Compound 40] | > 20 µM
40 | COc1ccc2c(c1)nc(C(C)c1ccc(C(=O)O)cc1)n2Cc1ccccc1Cl (stereo not drawn) [Compound 41] | > 20 µM
41 | COC(=O)c1ccc(C(C)c2nc3cc(OC)ccc3n2Cc2ccccc2Cl)cc1 (stereo not drawn) [Compound 42] | > 20 µM
42 | COc1ccc2c(c1)nc(C(C)c1ccc(CO)cc1)n2Cc1ccccc1Cl (stereo not drawn) [Compound 43] | > 20 µM
43 | COc1ccc2c(c1)nc(C(C)c1ccc(CC#N)cc1)n2Cc1ccccc1Cl (stereo not drawn) [Compound 44] | > 20 µM
44 | COc1ccc2c(c1)nc(C(C)c1ccc(CC(=O)O)cc1)n2Cc1ccccc1Cl (stereo not drawn) [Compound 45] | > 20 µM
45 | COC(=O)Cc1ccc(C(C)c2nc3cc(OC)ccc3n2Cc2ccccc2Cl)cc1 (stereo not drawn) [Compound 46] | 10 to 20 µM
46 | COc1ccc2c(c1)nc(C(C)c1ccc(CCO)cc1)n2Cc1ccccc1Cl (stereo not drawn) [Compound 47] | > 20 µM
47 | COc1ccc2c(c1)cc(C(C)c1ccc(CC(C)C)cc1)n2Cc1cccc(Cl)c1 (stereo not drawn) [Compound 48] | > 20 µM
48 | CC(C)Cc1ccc(C(C)c2cc3cc(O)ccc3n2Cc2cccc(Cl)c2)cc1 (stereo not drawn) [Compound 49] | 1 to 5 µM
49 | COc1ccc2c(c1)nc(-c1ccc(CC(C)C)cc1)n2Cc1ccccc1Cl [Compound 50] | 10 to 20 µM
50 | CC(C)Cc1ccc(-c2nc3cc(O)ccc3n2Cc2ccccc2Cl)cc1 [Compound 51] | 5 to 10 µM
51 | CC(C)Cc1ccc(C(C)c2nc3cc(Br)ccc3n2Cc2ccccc2Cl)cc1 (stereo not drawn) [Compound 52] | > 20 µM
52 | CC(C)Cc1ccc(C(C)c2nc3cc(C(=O)O)ccc3n2Cc2ccccc2Cl)cc1 (stereo not drawn) [Compound 53] | 10 to 20 µM
53 | COc1ccc2c(c1)c(-c1ccc(CC(C)C)cc1)c(C)n2Cc1ccccc1Cl [Compound 54] | > 20 µM
54 | Cc1c(-c2ccc(CC(C)C)cc2)c2cc(O)ccc2n1Cc1ccccc1Cl [Compound 55] | 1 to 5 µM
55 | COc1ccc2c(c1)c(-c1ccc(CC(C)C)cc1)cn2Cc1ccccc1Cl [Compound 56, 1-(2-chlorobenzyl)-3-(4-isobutylphenyl)-5-methoxy-1H-indole] | > 20 µM
56 | COc1ccc2c(c1)nc(CC(C)(C)C(=O)O)n2Cc1ccccc1Cl [Compound 57] | > 20 µM

Same assay, conditions: tumor cells treated 48 hours, cell survival by MTT

Row | Compound | IC50
57 | 3-(tert-butylthio)-1-(4-chlorobenzyl)-2-(2-methyl-2-(2-methyl-2H-tetrazol-5-yl)propyl)-1H-indol-5-ol [Compound 38] | 1 to 5 µM
